Test results published in patent publication US7378443B2, “Fatty acid analogues for the treatment of cancer” (Thia Medica, AS, priority 2000, dated 2008).
Entries after “also recorded” stand apart in the source; their conditions may differ.

Key:
Escherichia coli = experiment: tests for mutagenic activity in bacterial strains; format: cell-based; conditions: 3-1000 mg/plate (TTA), 2-5000 mg/plate (TSA)
Description: (§1) Covance Laboratories Limited, England, has performed tests for mutagenic activity. […] Furthermore, TTA was not mutagenic when tested in mouse lymphoma cells […] L5178Y.
(§2) The concentration of the compounds tested in S. typhimurium and E. coli were 3-1000 mg/plate (TTA) 2-5000 mg/plate (TSA). In mouse lymphoma cells, L5178Y, the concentration was 2,5-50 mg/ml.

Salmonella typhimurium = experiment: tests for mutagenic activity in bacterial strains; format: cell-based; conditions: 3-1000 mg/plate (TTA), 2-5000 mg/plate (TSA)
Description: as §1, §2

[1] = system: Chinese hamster ovary cells; experiment: chromosomal aberrations in cultured Chinese hamster ovary cells; format: cell-based; conditions: doses tested 12-140 mg/ml
GaMg cells = experiment: cell migration out from attached spheroids; format: cell-based, human; conditions: 100 μM, 3 days of culture, DMEM, data not shown
Description: (§3) To compare the effect of the different fatty acid analogues on tumour spheroid growth, both D-54Mg and GaMg spheroids were transferred individually into 16 mm 24-well dishes base coated with 0.5 ml 0.75% DMEM-agar. D-54Mg and GaMg are human cell lines. The D-54Mg cell line was derived from a mixed anaplastic glioma and was kindly supplied by Dr. Darell D. Bigner, Duke University, Durham, N.C. The GaMg cell line was established in our laboratory and has been described in detail elsewhere (Bjerkvik et al.: Anticancer research 1998: vol 8, p 797-803). The spheroids were divided into 5 groups with 4 spheroids in each group. Four groups were treated with the different fatty acid analogues at a final fatty acid concentration of either 100 or 250 μM. […] The volume of the overlay suspension was 1.0 ml. The size of the spheroids were determined every second day be measuring two orthogonal diameters using an inverted phase contrast microscope with a calibrated reticle in the eye-piece. This was done during a 14-day period.
(§4) The effect of the fatty acid analogues on cell migration was studied by measuring the ability of cells to migrate out from spheroids that had attached to a plastic surface. […] The size of the outgrowth area was then determined by using a Kontron morphometry system (Kontron, Eching, Germany). […]

D-54MG cells = experiment: cell migration out from attached spheroids; format: cell-based, human; conditions: D-54MG spheroids, 100 μM, 3 days of culture, DMEM; data not shown
Description: as §3, §4

[2] = system: mouse lymphoma cells, L5178Y; experiment: mutagenicity test in mouse lymphoma cells; format: cell-based; conditions: 2,5-50 mg/ml
Description: as §1, §2

BT4Cn tumours = experiment: survival of rats with intracranially implanted BT4Cn tumours; format: in vivo
Description: Mail Norwegian brown rats, BD IX, were used as described in example 5. The TTA was administered by oro-gastric intubation.
The tumour was implanted by stereotactical transplantation. The rats were anaesthetised with 0.4 ml Equithesin/100 g body weight. A skin incision was made, blood was removed by H2O2 and the scull was trephined using a dental drill.
The burr hole was localized 3.3 mm posterior to the coronal suture and 2.5 mm lateral to the sagittal suture.
Cells were harvested and counted as described above (Section 5.3), and then diluted in DPBS to a final concentration on 20.000 cells/μl. 2 μl cell suspension was injected with a Hamilton syringe with a cone-tipped 0.7 mm needle at a depth of 2.8 mm. The skin was closed with steel staples, and the animals were returned to their cages.

[3] = 28 days toxicity study in dogs (GLP); format: in vivo
Text: A 28 days toxicity study in dogs according to GLP guidelines has been performed by Corning Hazleton (Europe), England. […] Some lipid related parameters were lowered in the animals given high dosages. This is consistent with the pharmacological activity of TTA.

Row | Compound | induction of mutations (Escherichia coli) | induction of mutations (Salmonella typhimurium) | chromosomal aberrations [1] | migratory capacity (GaMg cells) | migratory capacity (D-54MG cells) | mutagenicity [2] | overall survival (BT4Cn tumours) | lipid related parameters ([3]; animals given high dosages) | tolerability ([3]; oral administration, dose levels up to 500 mg/kg/day) | evidence of toxicity ([3]; oral, dose levels of 50 or 500 mg/day/kg)
1 | CCCCCCCCCCCCCC[Se]CC(=O)O [TSA, tetradecylselenioacetic acid] | did not induce mutations; also recorded: not to be mutagenic | did not induce mutations; also recorded: not to be mutagenic | no aberrations were induced |  |  |  |  |  |  | 
2 | Tetradecylthioacetic acid [TTA] | did not induce mutations | did not induce mutations |  | severely inhibited | severely inhibited | not mutagenic | substantially increased | lowered | generally well tolerated | no evidence of toxicity
